{"source": "patent US8026231B2", "about": "“Aminothiolester compounds, pharmaceutical and cosmetic compositions containing same and uses thereof” (CNRS, priority 2000, dated 2011)", "key": {"B16 cells": {"system": "B16 cells", "experiment": "Growth of B16 cells (protein and DNA assay)", "type": "cell-based, mouse", "details": "50% inhibition of growth", "procedure": "(§1) The cells used correspond to various cell lines: human lung normal embryonic fibroblasts (MRC5), mouse melanoma cells (B16), mouse lymphocytic leukaemia cells (L1210) and L1210T cells obtained by infecting L1210 cells with a retroviral vector bearing human ALDH1 cDNA.\n(§2) The procedure used for the tests on the B16 and MRC5 cells is as follows: • The test compounds are added 4 hours after placing the cells in the wells. After 72 hours, the cells are removed at different times. The B16 and MRC5 cells are washed twice with PBS and recovered directly with 0.1M sodium chloride.\n(§3) The effect on the growth of the B16 and MRC5 cells is measured by protein assay according to the Lowry method (Lowry, O. H., Rosenbrough, N. J., Farr, A. L. and Randall, J. Biol. Chem. 193, 265-275, (1951)) and DNA assay by the Hoechst method (West, D. C., Sattar, A. and Kumar, S., Anal. Biochem. 147, 289-295, (1985)).\n(§4) The IC50 concentration is the concentration corresponding to a 50% inhibition of growth of the cells."}, "BAF3-bcl2 G18 cells": {"system": "BAF3-bcl2 G18 cells", "experiment": "Apoptosis induction (DNA fragmentation) in BAF3-bcl2 clone G18, 24 h", "type": "cell-based, mouse", "procedure": "(§5) The BAF3-bcl2 cells correspond to BAF3 cells (mouse lymphocyte cells) tranfected with the bcl2 gene. Among these cells, four lines known as H16, G18, B14 and G21 overexpress the bcl2 gene.\n(§6) Whereas the BAF3-b0 cells undergo apoptosis (more than 80% of the cells) in the absence of interleukin 3 (IL3) in 16 hours [according to Collins, M. K. L., Marvel, J., Malde, P. & Lopez-Rivas, A., J. Exp. Med. 176, 1043-1051, (1992)], the BAF3-bcl2 cells show no sign of apoptosis in the absence of IL3. They are thus apoptosis-resistant.\n(§7) The procedure which was used is as follows: • The BAF3-b0 or BAF3-bcl2 cells, cultured in the presence of IL3, were labelled by a method adapted from that disclosed in Wright, S. et al., J. of Cell. Biochem. 48, 344-355, (1992).\n(§8) 10^5 cells/ml were incubated with 4.62 KBq.ml^−1 [^3H]-thymidine for 40 hours at 37° C. After two washes with culture medium, 2.5×10^6 cells were cultured in the presence of the test compound.\n(§9) After incubating for 24 hours, these cells were recovered by centrifugation at 400×g for 5 minutes and washed 3 times with PBS buffer. The cells recovered in the pellet were lysed in 2 ml of 0.1% Triton X-100, 20 mM EDTA, 5 mM Tris pH 8 and centrifuged at 30 000×g at 4° C. for 30 minutes.\n(§10) The supernatants were recovered and the pellets dissolved in 0.3 ml of 0.5N NaOH.\n(§11) Aliquots of the culture medium (1 ml), of the supernatant (0.3 ml) and of the dissolved pellet (0.1 ml) were assayed in a scintillation counter.\n(§12) The percentage of DNA fragments is calculated in the following way:\n(§13) The percentage of fragmentation of the DNA is a direct measure of the apoptosis which the cells have undergone."}, "DU145 cells [1]": {"system": "DU145 cells", "experiment": "Combination of Example 1 and Metmetlico on the growth of DU145 cells", "type": "cell-based, human", "procedure": "The cells used correspond to metastatic cells of human prostate cancer DU145. 10^5 DU145 cells are incubated in the various wells of a microplate in 1 ml of culture medium. The test compounds are added 4 hours after placing the cells in the wells. After 72 hours, the cells are removed at different times. The cells are washed twice with PBS and recovered directly with 0.1M sodium chloride. The effect on the growth of DU145 cells is measured by protein assay according to the Lowry method (Lowry, O. H., Rosenbrough, […]. and Randall, J. Biol. Chem. 193, 265-275, (1951)) and DNA assay by the Hoechst method (West, […]. and Kumar, S., Anal. Biochem. 147, 289-295, (1985)). The test compounds are the compound of Example 1, metmetlico and a mixture thereof."}, "DU145 cells [2]": {"system": "DU145 cells", "experiment": "Combination of two compounds of the invention on the growth of DU145 cells", "type": "cell-based, human", "details": "2 μM", "procedure": "10^5 normal human prostate cells or 10^5 cancerous human prostate cells (DU145) are incubated in various wells of a microplate in 1 ml of culture medium.\nThe compounds are added 4 hours after placing the cells in the wells.\nAfter 72 hours, the cells are removed at different times. The DU145 cells or the normal cells are washed twice with PBS and recovered directly with 0.1M sodium chloride.\nas §3, with “DU145 cells or the normal” for “B16 and MRC5”"}, "BAF3-bcl2 B14 cells": {"system": "BAF3-bcl2 B14 cells", "experiment": "Apoptosis induction (DNA fragmentation) in BAF3-bcl2 clone B14, 24 h", "type": "cell-based, mouse", "procedure": "as §5, §6, §7, §8, §9, §10, §11, §12, §13"}, "R7 cells": {"system": "R7 cells", "experiment": "Growth of R7 cells which overexpress the MDR gene", "type": "cell-based", "details": "increasing concentrations, 72 h, FIGS. 7 and 8", "procedure": "10^5 cells were incubated in the various wells of a microplate in 1 ml of culture medium. These are R7 cells, on the one hand, and K562 cells, on the other hand.\nAfter incubating for 4 hours, the test compound (compound of Example 1 according to the invention, on the one hand, and daunorubicin, on the other hand) was added to the wells containing the cells.\nAfter 72 hours, the cells were collected at different times.\nThe growth of the cells was measured by counting the viable cells in the presence of 0.1% Trypan blue.\nFIGS. 7 and 8 respectively represent the percentage inhibition (I %) by daunorubicin and the compound of Example 1 on the growth of the R7 and K562 cells, obtained at increasing concentrations C. The results obtained with the K562 cells are symbolized by ♦ and those obtained with the R7 cells are symbolized by ▴."}, "MRC5 cells": {"system": "MRC5 cells", "experiment": "Growth of MRC5 cells (protein and DNA assay)", "type": "cell-based, human", "details": "50% inhibition of growth", "procedure": "as §1, §2, §3, §4"}}, "data": [{"smiles": "CSC(=O)C#CC(C)(C)N(C)C", "note": "[Example 1, S-methyl 4-dimethyl-amino-4-methyl-2-pentynethioate]", "values": [{"measurement": "IC50", "setting": "B16 cells", "value": 0.8, "unit": "µM"}, {"measurement": "DNA fragmentation (%)", "setting": "BAF3-bcl2 G18 cells; G18, 1 μM", "value": 0.6, "unit": "%"}, {"measurement": "DNA fragmentation (%)", "setting": "BAF3-bcl2 G18 cells; G18, 2 μM", "value": 7.3, "unit": "%"}, {"measurement": "DNA fragmentation (%)", "setting": "BAF3-bcl2 G18 cells; G18, 4 μM", "value": 52.7, "unit": "%"}, {"measurement": "DNA fragmentation (%)", "setting": "BAF3-bcl2 G18 cells; G18, 8 μM", "value": 84.3, "unit": "%"}, {"measurement": "% Inhibition of growth of the DU145 cells", "setting": "DU145 cells [1]; 2 μM", "value": 5.8, "unit": "%"}, {"measurement": "% Inhibition of growth of the DU145 cells", "setting": "DU145 cells [1]; 3 μM", "value": 16.1, "unit": "%"}, {"measurement": "% Inhibition of growth of the DU145 cells", "setting": "DU145 cells [1]; 4 μM", "value": 22.4, "unit": "%"}, {"measurement": "% Inhibition of DU145 cells", "setting": "DU145 cells [2]", "value": 21.3, "unit": "%"}, {"measurement": "DNA fragmentation (%)", "setting": "BAF3-bcl2 B14 cells; B14, 1 μM", "value": 0, "unit": "%"}, {"measurement": "DNA fragmentation (%)", "setting": "BAF3-bcl2 B14 cells; B14, 2 μM", "value": 2.0, "unit": "%"}, {"measurement": "DNA fragmentation (%)", "setting": "BAF3-bcl2 B14 cells; B14, 4 μM", "value": 44.1, "unit": "%"}, {"measurement": "DNA fragmentation (%)", "setting": "BAF3-bcl2 B14 cells; B14, 8 μM", "value": 90.0, "unit": "%"}, {"measurement": "Inhibition of the growth of the R7 cells", "setting": "R7 cells", "value": "very strongly inhibits the growth of the R7 cells"}, {"measurement": "IC50", "setting": "MRC5 cells", "value": 8.4, "unit": "µM"}]}]}
